{"source": "the OPERA property sets (Mansouri et al. 2018)", "settings": "for log10 BCF / log10 biotransformation half-life (days): fish"}
{"compound": "CC(C)(CCC(=O)O)C(=O)O", "values": [{"measurement": "melting point", "value": 84, "unit": "°C"}]}
{"compound": "CCc1ccc(C(=O)O)cc1", "values": [{"measurement": "melting point", "value": 112, "unit": "°C"}]}
{"compound": "C#CC(=O)OCC", "values": [{"measurement": "boiling point", "value": 120, "unit": "°C"}]}
{"compound": "CC(=O)NC(CC(=O)[O-])C(=O)[O-]", "note": "(centres undefined)", "values": [{"measurement": "melting point", "value": 138, "unit": "°C"}]}
{"compound": "CC(=O)Nc1ccc(F)cc1", "values": [{"measurement": "log10 Koc (L/kg)", "value": 1.48}, {"measurement": "melting point", "value": 154, "unit": "°C"}]}
{"compound": "Nc1ccc(S(=O)c2ccc(N)cc2)cc1", "values": [{"measurement": "melting point", "value": 175, "unit": "°C"}]}
{"compound": "CCC1C=CCCC1", "note": "(centres undefined)", "values": [{"measurement": "boiling point", "value": 134, "unit": "°C"}]}
{"compound": "C=C(Cl)Cl", "values": [{"measurement": "boiling point", "value": 31.6, "unit": "°C"}, {"measurement": "log10 Henry constant (atm·m³/mol)", "value": -1.58}, {"measurement": "log10 Koc (L/kg)", "value": 1.81}, {"measurement": "log10 vapour pressure (mmHg)", "value": 2.78}, {"measurement": "melting point", "value": -122, "unit": "°C"}, {"measurement": "ready biodegradability", "value": "not readily biodegradable"}, {"measurement": "log10 BCF", "value": 1.11}, {"measurement": "log10 biotransformation half-life (days)", "value": -0.72}]}
{"compound": "c1ccc(N2CN(c3ccccc3)CN(c3ccccc3)C2)cc1", "values": [{"measurement": "melting point", "value": 144, "unit": "°C"}]}
{"compound": "SC(c1ccccc1)(c1ccccc1)c1ccccc1", "values": [{"measurement": "melting point", "value": 105, "unit": "°C"}]}
{"compound": "CC(N)(CO)CO", "values": [{"measurement": "melting point", "value": 110, "unit": "°C"}]}
{"compound": "CCC(c1ccccc1)c1c(O)c2ccccc2oc1=O", "note": "(centres undefined)", "values": [{"measurement": "melting point", "value": 180, "unit": "°C"}]}
{"compound": "CC(C)CC1CCCCC1", "values": [{"measurement": "boiling point", "value": 171, "unit": "°C"}, {"measurement": "log10 vapour pressure (mmHg)", "value": 0.684}, {"measurement": "melting point", "value": -95, "unit": "°C"}, {"measurement": "log10 biotransformation half-life (days)", "value": 0.91}]}
{"compound": "Cc1cc[nH]c1", "values": [{"measurement": "boiling point", "value": 143, "unit": "°C"}, {"measurement": "melting point", "value": -48.4, "unit": "°C"}]}
{"compound": "CCCCOCCOCC(C)O", "note": "(centres undefined)", "values": [{"measurement": "boiling point", "value": 230, "unit": "°C"}]}
{"compound": "CCOC(OCC)OCC", "values": [{"measurement": "boiling point", "value": 143, "unit": "°C"}, {"measurement": "log10 vapour pressure (mmHg)", "value": 0.587}]}
{"compound": "c1ccc2sc(SSc3nc4ccccc4s3)nc2c1", "values": [{"measurement": "melting point", "value": 180, "unit": "°C"}, {"measurement": "ready biodegradability", "value": "not readily biodegradable"}, {"measurement": "log10 BCF", "value": 1.42}, {"measurement": "log10 biotransformation half-life (days)", "value": -0.91}]}
{"compound": "OCCOc1ccc2ccccc2c1", "values": [{"measurement": "melting point", "value": 76.7, "unit": "°C"}]}
{"compound": "CC(=O)S[C@H]1CC(=O)C=C2C[C@@H](SC(C)=O)[C@@H]3[C@H](CC[C@@]4(C)[C@H]3CC[C@]4(C)O)[C@]21C", "values": [{"measurement": "melting point", "value": 206, "unit": "°C"}]}
{"compound": "C[C@H](CCC(=O)O)[C@H]1CC[C@H]2[C@@H]3CC[C@@H]4C[C@H](O)CC[C@]4(C)[C@H]3CC[C@]12C", "values": [{"measurement": "melting point", "value": 186, "unit": "°C"}]}
{"compound": "CC(=O)O[C@@H]1C[C@]2(O)[C@H](CC[C@]3(C)[C@@H](c4ccc(=O)oc4)CC[C@@]32O)[C@@]2(C)CC[C@H](O[C@@H]3O[C@H](CO)[C@@H](O)[C@H](O)[C@H]3O)C=C12", "values": [{"measurement": "melting point", "value": 169, "unit": "°C"}]}
{"compound": "CCOCCN", "values": [{"measurement": "boiling point", "value": 108, "unit": "°C"}]}
{"compound": "COc1cc2cc(c1Cl)N(C)C(=O)C[C@H](OC(=O)[C@H](C)N(C)C(C)=O)[C@]1(C)O[C@H]1[C@H](C)[C@@H]1C[C@@](O)(NC(=O)O1)C(OC)C=CC=C(C)C2", "note": "(some centres undefined)", "values": [{"measurement": "melting point", "value": 172, "unit": "°C"}]}
{"compound": "c1ccc(O[Si](Oc2ccccc2)(Oc2ccccc2)Oc2ccccc2)cc1", "values": [{"measurement": "boiling point", "value": 417, "unit": "°C"}, {"measurement": "melting point", "value": 49, "unit": "°C"}]}
{"compound": "O=C(C(=O)c1ccccc1)c1ccccc1", "values": [{"measurement": "boiling point", "value": 347, "unit": "°C"}, {"measurement": "log10 vapour pressure (mmHg)", "value": -3.68}, {"measurement": "melting point", "value": 94.8, "unit": "°C"}]}
{"compound": "C=CCCC(=C)C", "values": [{"measurement": "boiling point", "value": 88.1, "unit": "°C"}, {"measurement": "melting point", "value": -129, "unit": "°C"}]}
{"compound": "CCc1nn(CCCN2CCN(c3cccc(Cl)c3)CC2)c(=O)n1CCOc1ccccc1", "values": [{"measurement": "melting point", "value": 83.5, "unit": "°C"}]}
{"compound": "C/C=C(\\C)C(=O)OC", "values": [{"measurement": "boiling point", "value": 139, "unit": "°C"}]}
{"compound": "O=C1/C(=C2\\Nc3c(Br)cc(Br)cc3C2=O)Nc2c(Br)cc(Br)cc21", "values": [{"measurement": "log10 vapour pressure (mmHg)", "value": -11.1}]}
{"compound": "CCCC(C)(C)O", "values": [{"measurement": "boiling point", "value": 121, "unit": "°C"}, {"measurement": "log10 vapour pressure (mmHg)", "value": 0.934}, {"measurement": "melting point", "value": -103, "unit": "°C"}]}
{"compound": "CCn1c2ccccc2c2ccccc21", "values": [{"measurement": "log10 vapour pressure (mmHg)", "value": -3.66}, {"measurement": "melting point", "value": 68, "unit": "°C"}]}
{"compound": "OCC(O)CI", "note": "(centres undefined)", "values": [{"measurement": "melting point", "value": 48.5, "unit": "°C"}]}
{"compound": "O=c1[nH]cnc2c1ncn2[C@H]1CC[C@@H](CO)O1", "values": [{"measurement": "melting point", "value": 162, "unit": "°C"}]}
{"compound": "CC(Oc1ccc(Cl)cc1Cl)C(=O)O", "note": "(centres undefined)", "values": [{"measurement": "log10 Koc (L/kg)", "value": 2.23}, {"measurement": "log10 vapour pressure (mmHg)", "value": -6.73}, {"measurement": "melting point", "value": 122, "unit": "°C"}]}
{"compound": "CC(C)COC(=O)C(C)Oc1ccc(Oc2ccc(Cl)cc2)cc1", "note": "(centres undefined)", "values": [{"measurement": "melting point", "value": 39.5, "unit": "°C"}]}
{"compound": "BrCCc1ccccc1", "values": [{"measurement": "boiling point", "value": 219, "unit": "°C"}, {"measurement": "log10 vapour pressure (mmHg)", "value": -0.612}, {"measurement": "melting point", "value": -65.7, "unit": "°C"}]}
{"compound": "COc1ccc(C[C@H](N)C(=O)N[C@H]2[C@@H](O)[C@H](n3cnc4c(N(C)C)ncnc43)O[C@@H]2CO)cc1", "values": [{"measurement": "melting point", "value": 176, "unit": "°C"}]}
{"compound": "CC(C(C)(C)C)C(C)(C)C", "values": [{"measurement": "boiling point", "value": 159, "unit": "°C"}, {"measurement": "melting point", "value": -38.7, "unit": "°C"}]}
{"compound": "COC(=O)c1cc(Oc2ccc(Cl)cc2Cl)ccc1[N+](=O)[O-]", "values": [{"measurement": "log10 Koc (L/kg)", "value": 4}, {"measurement": "log10 vapour pressure (mmHg)", "value": -7}, {"measurement": "melting point", "value": 85, "unit": "°C"}]}
{"compound": "Cn1c(=O)c2c(ncn2CCO)n(C)c1=O", "values": [{"measurement": "melting point", "value": 158, "unit": "°C"}]}
{"compound": "C=C(C)c1ccc(C(=C)C)cc1", "values": [{"measurement": "melting point", "value": 63.5, "unit": "°C"}]}
{"compound": "O=C(CCCN1CCC2(CC1)C(=O)NCN2c1ccccc1)c1ccc(F)cc1", "values": [{"measurement": "melting point", "value": 142, "unit": "°C"}]}
{"compound": "CC1(C)C(=O)NC(=O)N1CO", "values": [{"measurement": "melting point", "value": 100, "unit": "°C"}]}
{"compound": "CC(C)(C)CCCl", "values": [{"measurement": "boiling point", "value": 115, "unit": "°C"}]}
